Key:
IRAK4 [1] = target: T1, IRAK4 (Homo sapiens (Human), UniProt Q9NWZ3); test: Western blot assay for assessing degradation of IRAK4 in MCF7 cells; format: cell-based; conditions: Table 5, IRAK4 degradation, 24 hour incubation; for DC50: read-out: IRAK4 DC50
Method: Western Blot Assay for Assessing Degradation of IRAK4.
MCF7 cells, purchased from ATCC (Manassas, Va.), were used at a passage range of 2-19. Cells were seeded at 50% confluency in 96-well plates at 180 μl/well in cell media (Dulbecco's Modified Eagle medium/nutrient F-12 Ham-10% Fetal Bovine Serum) and incubated overnight. The next morning, compounds were serially diluted and added (20 μl into 180 μl media) at a final DMSO concentration of 0.1%. Cells were rinsed with cell media and replaced with compounds in media, followed by incubation overnight. After a 24 hour incubation with compound, cell were harvested (90-100% confluent at harvest). Cells were then washed once with 100 μl of Dulbecco's hosphate-buffered saline and then lysed with 40 μl of lysis buffer (1×RIPA+HALT protease inhibitor+HALT phosphatase inhibitor) on ice for 10 minutes. Lysates were then cleaned by filtration in 1.2 µm filter plates followed by western blotting. For each sample, 30 μl of lysate were added to 10 μl of 4×LDS sample buffer, then denatured at 95° C. for 5 minutes in the thermal cycler and placed on ice. Fifteen μL of each sample were then loaded on 4-15% Tris/Glycine gels and run for 25 minutes at 250 (constant) volts in 1× Tris/Glycine buffer. Protein was transferred from gels to nitrocellulose using a BioRad Turbo dry-transfer unit with the Turbo/midi default program. All blots were rinsed with ddH2O and blocked for 1 hour at room temperature in 5% bovine serum albumin (BSA) in tris-buffered saline-Tween 20 (TBS-T) (0.1%) on rocker. Blots were exposed to primary antibody in 5% BSA in TBS-T (0.1%) overnight at 4° C. on rocker. Primary antibodies, diluted 1:1000 in […], were as follows: anti-IRAK4 (cat. #: ab119942, Abcam, Cambridge, Mass.), anti-IRAK1 (cat. #: CST 4504S, Cell Signaling Technology, Danvers, Mass.), and anti-Beta-actin (Cat. #: ab8227, Abcam, Cambridge, Mass.). Blots were then washed with TBS-T (0.1%) three times for 5 minutes on a rocker at room temperature. Secondary antibody (1:18,000 anti-rabbit-HRP and/or anti-mouse-HRP in 5% BSA in TBST (0.1%) was then added, and blots incubated at room temperature rocker for 1 hour. Blots were washed 3 times in TBS-T (0.1%) for 5 minutes at room temperature on the rocker. Signal was developed with Femto Max substrate for 5 minutes and blots read on a ChemiDoc. Percent degradation was assessed by comparing IRAK4 signal in compound vs. DMSO treated lysates.

IRAK4 [2] = target: T1, IRAK4; test: Biochemical Z'-Lyte FRET assay for IRAK4 kinase inhibition; conditions: 2 nM enzyme, 1 mM ATP, 2 μM substrate
Method: Biochemical Assay for IRAK4 Kinase Inhibition.
A Z′-Lyte assay based on a fluorescence resonance energy transfer (FRET) readout was developed for measuring IRAK4-dependent phosphorylation of a FRET-peptide substrate as described by Thermo Fisher Scientific (Grand Island, N.Y.). At a starting concentration of 1.5 mM, the identified compounds were serially diluted with 100% dimethyl sulfoxide (DMSO) in 3-fold increments, into Greiner bio-one 96-well plates (cat. #: 650201, Greiner bio-one, Monroe, N.C.). Compounds were then transferred to intermediate Greiner bio-one 96-well plates and diluted 10-fold with Kinase assay buffer (25 mM HEPES, pH 7.5, 10 mM MgCl2, 10 mM MnCl2, 1 mM EGTA, and 0.01% Brij-35, 2 mM DTT). Three μL of the serially diluted compounds were then transferred in duplicate to low-volume 384-well black proxiplates (cat. #: 6008269; Perkin Elmer, Akron, Ohio), to give duplicate twelve-point concentration curves. Six μl of a 2.5× solution of IRAK4 enzyme (cat #: 40064, BPS Bioscience, San Diego, Calif.) in kinase buffer was added to each well, followed by a 10 minutes pre-incubation step. Reactions were initiated by adding 6 μl of a 2.5× substrate mix of ATP and Z′-Lyte Ser/Thr 7 peptide (cat. #: PV3180, Thermo Fisher Scientific, Grand Island, N.Y.) and proceeded at room temperature for 1 hour. The final concentration of key reagents in the 15 uL kinase reactions were 2 μM substrate, 2 nM enzyme, and 1 mM ATP, with dose responses starting at 30 μM compound. At the end of the kinase reactions, 5 μl of developing solution (as instructed in for cat. #: PV3180, Thermo Fisher Scientific, Grand Island, N.Y.) was added to each well and incubated at room temperature for 1 hour. All wells were read on an Envision 2105 Multilabel fluorescence plate reader (Perkin Elmer, Waltham, Mass.) at 400 nm excitation and 460 nm/530 nm emission. Plus and minus 100% inhibition controls were used to calculate percent inhibition and IC50 curves were generated using Graphpad Prism (La Jolla, Calif.).

T1 sequence (Q9NWZ3 whole entry): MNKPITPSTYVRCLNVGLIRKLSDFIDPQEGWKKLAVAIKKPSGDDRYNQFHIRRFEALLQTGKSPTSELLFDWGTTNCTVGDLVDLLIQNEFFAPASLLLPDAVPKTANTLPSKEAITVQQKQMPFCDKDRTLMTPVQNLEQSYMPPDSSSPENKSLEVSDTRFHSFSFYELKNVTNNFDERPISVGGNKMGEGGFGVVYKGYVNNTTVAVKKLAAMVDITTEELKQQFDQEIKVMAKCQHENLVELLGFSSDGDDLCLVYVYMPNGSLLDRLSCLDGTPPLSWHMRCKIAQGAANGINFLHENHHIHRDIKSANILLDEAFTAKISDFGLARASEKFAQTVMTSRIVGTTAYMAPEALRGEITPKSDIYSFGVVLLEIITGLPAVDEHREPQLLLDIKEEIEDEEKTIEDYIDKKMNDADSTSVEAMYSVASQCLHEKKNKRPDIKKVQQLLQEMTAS

Row | Molecule | DC50 (IRAK4 [1]) [µM] | IC50 (IRAK4 [2]) [µM] | Dmax (IRAK4 [1]; read-out: IRAK4 Dmax (%)) [%] | IRAK4 Dmax (%) (IRAK4 [1])
1 | N-(1-(3-((2-(2,6- dioxopiperidin-3-yl)-1,3- dioxoisoindolin-5- yl)oxy)ethyl)(methyl)amino) phenyl)-5-(piperadin-1- yl)methyl)-1H- benzo[d]imidazol-2-yl)-3- (trifluoromethyl)benzamide [compound 68] | 0.3 to 1 | ≥ 1 |  | C (50 ≥ C > 30)
2 | O=C1CCC(N2C(=O)c3ccc(OCCOCCOC[C@H]4CC[C@@H](n5c(NC(=O)c6cccc(C(F)(F)F)c6)nc6cc(CN7CCCCC7)ccc65)CC4)cc3C2=O)C(=O)N1 (stereo partly drawn) [compound 44, N-(1-((1s,4s)-4-((2-(2-((2-(2,6-dioxopiperidin-3-yl)-1,3-dioxoisoindolin-5-yl)oxy)ethoxy)ethoxy)methyl)cyclohexyl)-5-(piperidin-1-ylmethyl)-1H-benzo[d]imidazol-2-yl)-3-(trifluoromethyl)benzamide] | ≥ 1 | ≥ 1 |  | 
3 | N-(1-((1s,4s)-4-(13-((2-(2,6- dioxopiperidin-3-yl)-1,3- dioxoisoindolin-5-yl)oxy)- 2,5,8,11- tetraoxatetradecyl)cyclohexyl)- 5-(piperidin-1-ylmethyl)-1H- benzo[d]imidazol-2-yl)-3- (trifluoromethyl)benzamide [compound 42] | ≥ 1 | 0.3 to 1 |  | 
4 | Cc1ccc(-n2nc(N3CCN(CCOCCOCCOCCOc4ccc5c(c4)C(=O)N(C4CCC(=O)NC4=O)C5=O)CC3)cc2NC(=O)c2cnn3cccnc23)nc1 (stereo not drawn) [compound 26, N-(3-(4-(2-(2-(2-(2-((2-(2,6-dioxopiperidin-3-yl)-1,3-dioxoisoindolin-5-yl)oxy)ethoxy)ethoxy)ethoxy)ethyl)piperazin-1-yl)-1-(5-methylpyridin-2-yl)-1H-pyrazol-5-yl)pyrazolo[1,5-a]pyrimidine-3-caboxamide] | ≥ 1 | 0.3 to 1 |  | 
5 | N#Cc1ccc2ncnc(N[C@H]3CC[C@H](N4CCN(CCOc5ccc6c(c5)C(=O)N(C5CCC(=O)NC5=O)C6=O)CC4)CC3)c2c1 (stereo partly drawn) [compound 29] | ≥ 1 | 0.3 to 1 |  | 
6 | Cc1ccc(-n2nc(N3CCN(CCOCCOCCOc4ccc5c(c4)C(=O)N(C4CCC(=O)NC4=O)C5=O)CC3)cc2NC(=O)c2cnn3cccnc23)nc1 (stereo not drawn) [compound 25, N-(3-(4-(2-(2-(2-((2-(2,6-dioxopiperidin-3-yl)-1,3-dioxoisoindolin-5-yl)oxy)ethoxy)ethoxy)ethyl)piperazin-1-yl)-1-(5-methylpyridin-2-yl)-1H-pyrazol-5-yl)pyrazolo[1,5-a]pyrimidine-3-caboxamide] | ≥ 1 | 0.03 to 0.1 |  | 
7 | CN(CCOCCOCCOc1ccc2c(c1)C(=O)N(C1CCC(=O)NC1=O)C2=O)c1cccc(-n2c(NC(=O)c3cccc(C(F)(F)F)c3)nc3cc(F)ccc32)c1 (stereo not drawn) [compound 49, N-(1-(3-((2-(2-(2-((2-(2,6-dioxopiperidin-3-yl)-1,3-dioxoisoindolin-5-yl)oxy)ethoxy)ethoxy)ethyl) (methyl)amino)phenyl)-5-fluoro-1H-benzo[d]imidazol-2-yl)-3-(trifluoromethyl)benzamide] | ≥ 1 | ≥ 1 |  | 
8 | Cc1ccc(-n2nc(N3CCN(CCOCCOCCOCCOCC(=O)N[C@H](C(=O)N4C[C@H](O)C[C@H]4C(=O)NCc4ccc(-c5scnc5C)cc4)C(C)(C)C)CC3)cc2NC(=O)c2cnn3cccnc23)nc1 [compound 28, N-(3-(4-((S)-16-((2S,4R)-4-hydroxy-2-((4-(4-methylthiazol-5-yl)benzyl)carbamoyl)pyrrolidine-1-carbonyl)-17,17-dimethyl-14-oxo-3,6,9,12-tetraoxa-15-azapentadecyl)piperazin-1-yl)-1-(5-methylpyridin-2-yl)-1H-pyrazol-5-yl)pyrazolo[1,5-a]pyrimidine-3-carboxamide] | ≥ 1 | 0.3 to 1 |  | 
9 | O=C1CCC(N2C(=O)c3ccc(OCCOCCOC[C@H]4CC[C@@H](n5c(NC(=O)c6cccc(C(F)(F)F)c6)nc6cc(F)ccc65)CC4)cc3C2=O)C(=O)N1 (stereo partly drawn) [compound 46, N-(1-((1s,4s)-4-((2-(2-((2-(2,6-dioxopiperidin-3-yl)-1,3-dioxoisoindolin-5-yl)oxy)ethoxy)ethoxy)methyl)cyclohexyl)-5-fluoro-1H-benzo[d]imidazol-2-yl)-3-(trifluoromethyl)benzamide] | ≥ 1 | ≥ 1 |  | 

Continued, in another order:

Row | DC50 (IRAK4 [1]) [µM] | IC50 (IRAK4 [2]) [µM] | Dmax (IRAK4 [1]; read-out: IRAK4 Dmax (%)) [%] | Molecule | IRAK4 Dmax (%) (IRAK4 [1])
10 | ≥ 1 | 0.3 to 1 |  | Cc1ncsc1-c1ccc(CNC(=O)[C@@H]2C[C@@H](O)CN2C(=O)[C@@H](NC(=O)COCCOCCOCCN2CCN(Cc3ccc4c(c3)nc(NC(=O)c3cccc(C(F)(F)F)c3)n4C3CCC(CO)CC3)CC2)C(C)(C)C)cc1 (mixture of isomers) [compound 13, (2S,4R)-1-((S)-2-(tert-butyl)-14-(4-((1-((1SR,4SR)-4-(hydroxymethyl)cyclohexyl)-2-(3-(trifluoromethyl)benzamido)-1H-benzo[d]imidazol-5-yl)methyl)piperazin-1-yl)-4-oxo-6,9,12-trioxa-3-azatetradecanoyl)-4-hydroxy-N-(4-(4-methylthiazol-5-yl)benzyl)pyrrolidine-2-carboxamide] | 
11 | ≥ 1 | ≥ 1 |  | N#Cc1ccc2ncnc(N[C@H]3CC[C@H](N4CCN(CCOCCOCCOc5ccc6c(c5)C(=O)N(C5CCC(=O)NC5=O)C6=O)CC4)CC3)c2c1 (stereo partly drawn) [compound 31] | 
12 | 0.3 to 1 | < 0.03 |  | O=C1CCC(N2C(=O)c3cccc(NCCOCCOCCN4CCN(Cc5ccc6c(c5)nc(NC(=O)c5cccc(C(F)(F)F)c5)n6[C@H]5CC[C@@H](CO)CC5)CC4)c3C2=O)C(=O)N1 (stereo partly drawn) [compound 66, N-(5-((4-(2-(2-(2-((2-(2,6-dioxopiperidin-3-yl)-1,3-dioxoisoindolin-4-yl)amino)ethoxy)ethoxy)ethyl)piperazin-1-yl)methyl)-1-((1s,4s)-4-(hydroxymethyl)cyclohexyl)-1H-benzo[d]imidazol-2-yl)-3-(trifluoromethyl)benzamide] | 
13 | ≥ 1 | ≥ 1 |  | N#Cc1ccc2ncnc(N[C@H]3CC[C@@H](N4CCN(S(=O)(=O)CCOCCOc5ccc6c(c5)C(=O)N(C5CCC(=O)NC5=O)C6=O)CC4)CC3)c2c1 (stereo partly drawn) [compound 35] | 
14 | 0.3 to 1 | < 0.03 | 50 to 70 | COc1cc2nn(C3CCN(CCOCCOCCOc4ccc5c(c4)C(=O)N(C4CCC(=O)NC4=O)C5=O)CC3)cc2cc1NC(=O)c1cccc(C(F)(F)F)n1 (stereo not drawn) [compound 59, N-(2-(1-(2-(2-(2-((2-(2,6-dioxopiperidin-3-yl)-1,3-dioxoisoindolin-5-yl)oxy)ethoxy)ethoxy)ethyl)piperidin-4-yl)-6-methoxy-2H-indazol-5-yl)-6-(trifluoromethyl)picolinamide] | 

From US11065231B2, “Compounds and methods for the targeted degradation of interleukin-1 receptor- associated kinase 4 polypeptides” (Arvinas Operations, Inc., priority 2017, dated 2021)
